Data: US10654816B2, “Compounds and compositions for treating conditions associated with NLRP activity” (NOVARTIS INFLAMMASOME RESEARCH, INC., priority 2017, dated 2020)

tested on: IL-1β production in PMA-differentiated THP-1 cells; test: IL-1β production in PMA-differentiated THP-1 cells stimulated with gramicidin (hTHP-1 assay, HTRF readout; Procedures 1-3); format: cell-based, human; settings: Homo sapiens, THP-1, hTHP-1 assay containing 2% fetal bovine serum; average; class symbols; read-out: hTHP-1 IC50 (Average IC50 of compounds in hTHP-1 assay)
Method: The Following Protocol is Suitable for Testing the Activity of the Compounds Disclosed Herein. Procedure 1: IL-1B Production in PMA-Differentiated THP-1 Cells Stimulated with Gramicidin.
THP-1 cells were purchased from the American Type Culture Collection and sub-cultured according to instructions from the supplier. Cells were cultured in complete RPMI 1640 (containing 10% heat inactivated FBS, penicillin (100 units/ml) and streptomycin (100 μg/ml)), and maintained in log phase prior to experimental setup. Prior to the experiment, compounds were dissolved in dimethyl sulfoxide (DMSO) to generate a 30 mM stock. The compound stock was first pre-diluted in DMSO to 3, 0.34, 0.042 and 0.0083 mM intermediate concentrations and subsequently spotted using Echo550 liquid handler into an empty 384-well assay plate to achieve desired final concentration (e.g. 100, 33, 11, 3.7, 1.2, 0.41, 0.14, 0.046, 0.015, 0.0051, 0.0017 μM). DMSO was backfilled in the plate to achieve a final DMSO assay concentration of 0.37%. The plate was then sealed and stored at room temperature until required.
THP-1 cells were treated with PMA (Phorbol 12-myristate 13-acetate) (20 ng/ml) for 16-18 hours. On the day of the experiment the media was removed and adherent cells were detached with trypsin for 5 minutes. Cells were then harvested, washed with complete RPMI 1640, spun down, and resuspended in RPMI 1640 (containing 2% heat inactivated FBS, penicillin (100 units/ml) and streptomycin (100 μg/ml). The cells were plated in the 384-well assay plate containing the spotted compounds at a density of 50,000 cells/well (final assay volume 50 μl). Cells were incubated with compounds for 1 hour and then stimulated with gramicidin (5 μM) (Enzo) for 2 hours. Plates were then centrifuged at 340 g for 5 min. Cell free supernatant (40 μL) was collected using a 96-channel PlateMaster (Gilson) and the production of IL-1β was evaluated by HTRF (cisbio). The plates were incubated for 18 h at 4° C. and read using the preset HTRF program (donor emission at 620 nm, acceptor emission at 668 nm) of the SpectraMax i3x spectrophotometer (Molecular Devices, software SoftMax 6). A vehicle only control and a dose titration of CRID3 (100-0.0017 μM) were run concurrently with each experiment.
Procedure 2: IL-1β Production in PMA-Differentiated THP-1 Cells Stimulated with Gramicidin.
THP-1 cells were purchased from the American Type Culture Collection and sub-cultured according to instructions from the supplier. Prior to experiments, cells were cultured in complete RPMI 1640 (containing 10% heat inactivated FBS, penicillin (100 units/ml) and streptomycin (100 μg/ml)), and maintained in log phase prior to experimental setup. Prior to the experiment THP-1 were treated with PMA (Phorbol 12-myristate 13-acetate) (20 ng/ml) for 16-18 hours. Compounds were dissolved in dimethyl sulfoxide (DMSO) to generate a 30 mM stock.
On the day of the experiment the media was removed and adherent cells were detached with trypsin for 5 minutes. Cells were then harvested, washed with complete RPMI 1640, spun down, resuspended in RPMI 1640 (containing 2% heat inactivated FBS, penicillin (100 units/ml) and streptomycin (100 μg/ml). The cells were plated in a 384-well plate at a density of 50,000 cells/well (final assay volume 50 μl). Compounds were first dissolved in assay medium to obtain a 5× top concentration of 500 μM. 10 step dilutions (1:3) were then undertaken in assay medium containing 1.67% DMSO. 5× compound solutions were added to the culture medium to achieve desired final concentration (e.g. 100, 33, 11, 3.7, 1.2, 0.41, 0.14, 0.046, 0.015, 0.0051, 0.0017 μM). Final DMSO concentration was at 0.37%. Cells were incubated with compounds for 1 hour and then stimulated with gramicidin (5 μM) (Enzo) for 2 hours. Plates were then centrifuged at 340 g for 5 min. Cell free supernatant (40 μL) was collected using a 96-channel PlateMaster (Gilson) and the production of IL-1β was evaluated by HTRF (cisbio). […]

IC50 [µM]	Compound
5 to 30	NS(=O)(=NC(=O)Nc1c2c(cc3c1CCC3)CCC2)c1ccc(CN2CCCC2=O)cc1 (stereo not drawn) [Example 244]
1 to 5	NS(=O)(=NC(=O)Nc1c2c(cc3c1CCC3)CCC2)c1ccc(CN2CCCC2)cc1 (stereo not drawn) [Example 236, N′-(1,2,3,5,6,7-hexahydro-s-indacen-4-ylcarbamoyl)-4-(pyrrolidin-1-ylmethyl)benzenesulfonimidamide]
1 to 5	CC(C)(O)c1nc(CO)c(S(N)(=O)=NC(=O)Nc2c3c(c(C#N)c4c2CCC4)CCC3)s1 (stereo not drawn) [Example 69, N′-((8-cyano-1,2,3,5,6,7-hexahydro-s-indacen-4-yl)carbamoyl)-4-(hydroxymethyl)-2-(2-hydroxypropan-2-yl)thiazole-5-sulfonimidamide]
1 to 5	CC(C)c1cc(C#N)cc(C(C)C)c1NC(=O)N=S(N)(=O)c1ccc(C(C)(C)O)c(CO)c1 (stereo not drawn) [Example 68, N′-((4-cyano-2,6-diisopropylphenyl)carbaoyl)-3-(hydroxymethyl)-4-(2-hydroxypropan-2-yl)benzenesulfonimidamide]
5 to 30	Cc1nc(C)c(S(N)(=O)=NC(=O)Nc2c(C(C)C)cc(F)cc2C(C)C)s1 (stereo not drawn) [Example 428, 3-[amino(dimethyl-1,3-thiazol-5-yl)oxo-λ^6-sulfanylidene]-1-[4-fluoro-2,6-bis(propan-2-yl)phenyl]urea]
1 to 5	Cc1nc(C(C)(C)O)ccc1S(N)(=O)=NC(=O)Nc1c2c(cc3c1CCC3)CCC2 (stereo not drawn) [Example 264, N′-((1,2,3,5,6,7-hexahydro-s-indacen-4-yl)carbamoyl)-6-(2-hydroxypropan-2-yl)-2-methylpyridine-3-sulfonimidamide]
0.008 to 0.04	CC(C)(O)c1csc(S(N)(=O)=NC(=O)Nc2c3c(cc4c2CC4)CCC3)n1 (stereo not drawn) [Example 262, 4-(2-Hydroxypropan-2-yl)-N′-((2,4,5,6-tetrahydro-1H-cyclobuta[f]inden-3-yl)carbamoyl)thiazole-2-sulfonimidamide]
1 to 5	CCc1ccc2cn[nH]c2c1NC(=O)N=S(N)(=O)c1cnc(C(C)(C)O)s1 (stereo not drawn) [Example 290, N′-((6-ethyl-1H-indazol-7-yl)carbamoyl)-2-(2-hydroxypropan-2-yl)thiazole-5-sulfonimidamide]
5 to 30	CC(C)c1cc(F)cc(C(C)C)c1NC(=O)N=S(N)(=O)c1ccc(S(C)(=O)=O)cc1 (single isomer, unassigned) [Example 145, (R)- or (S)-N′-(4-fluoro-2,6-diisopropylphenylcarbamoyl)-4-(methylsulfonyl)-benzenesulfonimidamide]
1 to 5	CC(C)c1cc(C#N)cc(C(C)C)c1NC(=O)N=S(N)(=O)c1ccc(C(C)(C)O)c(CO)c1 (single isomer, unassigned) [Example 188, (S)- or (R)-N′-((4-cyano-2,6-diisopropylphenyl)carbamoyl)-3-(hydroxymethyl)-4-(2-hydroxypropan-2-yl)benzenesulfonimidamide]

Further lines, the compound ahead of its results:

Compound	IC50 [µM]
CC(C)(O)c1csc(S(N)(=O)=NC(=O)Nc2c3c(c(C#N)c4c2CCC4)CCC3)c1 (stereo not drawn) [Example 26, N′-(8-cyano-1,2,3,5,6,7-hexahydro-s-indacen-4-ylcarbamoyl)-4-(2-hydroxypropan-2-yl)thiophene-2-sulfonimidamide]	0.04 to 0.2
CC(C)c1cc(C#N)cc(C(C)C)c1NC(=O)N=S(N)(=O)c1cc(C(C)(C)O)cc(C(C)(C)O)c1 (stereo not drawn) [Example 66, N′-((4-cyano-2,6-diisopropylphenyl)carbaoyl)-3,5-bis(2-hydroxypropan-2-yl)benzenesulfonimidamide]	5 to 30
CC(C)c1ccc(S(N)(=O)=NC(=O)Nc2c3c(cc4c2CCC4)CCC3)cn1 (stereo not drawn) [Example 288, N′-((1,2,3,5,6,7-hexahydro-s-indacen-4-yl)carbamoyl)-6-isopropylpyridine-3-sulfonimidamide]	1 to 5
C#CCN(C)Cc1ccc(S(N)(=O)=NC(=O)Nc2c3c(cc4c2CCC4)CCC3)cc1 (stereo not drawn) [Example 239, N′-(1,2,3,5,6,7-hexahydro-s-indacen-4-ylcarbamoyl)-4-((methyl(prop-2-ynyl)amino)methyl)benzene-sulfonimidamide]	1 to 5
CC(=O)N(C)Cc1cccc(S(N)(=O)=NC(=O)Nc2c3c(cc4c2CCC4)CCC3)c1 (single isomer, unassigned) [Example 368, (R) or (S)-N-(3-(N′-((1,2,3,5,6,7-hexahydro-s-indacen-4-yl)carbamoyl)sulfamid-imidoyl)benzyl)-N-methylacetamide]	1 to 5
CC(=O)NS(=O)(=NC(=O)Nc1c2c(cc3c1CCC3)CCC2)c1cnc(C(C)(C)O)s1 (stereo not drawn) [Example 250]	5 to 30
NS(=O)(=NC(=O)Nc1c2c(cc3c1CCC3)CCC2)c1ccc(CO)cc1 (stereo not drawn) [Example 233, 1-[amino[4-(hydroxymethyl)phenyl]oxo-λ^6-sulfanylidene]-3-(1,2,3,5,6,7-hexahydro-s-indacen-4-yl)urea]	1 to 5

same assay, conditions: Homo sapiens, THP-1, hTHP-1 assay containing 2% fetal bovine serum; average; given as bound; read-out: hTHP-1 IC50 (Average IC50 of compounds in hTHP-1 assay)

IC50 [µM]	Compound
> 30	CN(Cc1ccc(S(N)(=O)=NC(=O)Nc2c3c(cc4c2CCC4)CCC3)cc1)C(=O)CCC(=O)O (stereo not drawn) [Example 252]
> 30	CC(C)c1cc(F)cc(C(C)C)c1NC(=O)N=S(N)(=O)c1ccccc1-c1ccccc1 (stereo not drawn) [Example 212, N′-((4-fluoro-2,6-diisopropylphenyl)carbamoyl)-[1,1′-biphenyl]-2-sulfonimidamide]

Further lines, the compound ahead of its results:

Compound	IC50 [µM]
CC(C)c1csc(S(N)(=O)=NC(=O)Nc2c3c(cc4c2CCC4)CCC3)c1 (single isomer, unassigned) [Example 406, (S) or (R)-N′-((1,2,3,5,6,7-hexahydro-s-indacen-4-yl)carbamoyl)-4-isopropylthiophene-2-sulfonimidamide]	> 30
COCc1ccccc1S(N)(=O)=NC(=O)Nc1c(C(C)C)cc(F)cc1C(C)C (stereo not drawn) [Example 213, N′-((4-fluoro-2,6-diisopropylphenyl)carbamoyl)-2-(methoxymethyl)benzene-sulfonimidamide]	> 30
CC(C)c1cc(C#N)cc(C(C)C)c1NC(=O)N=S(N)(=O)c1ccc(C(C)(C)O)c(CO)c1 (single isomer, unassigned) [Example 189, (R)- or (S)-N′-((4-cyano-2,6-diisopropylphoxyproyl)-3-(hydroxymethyl)-4-(2-hydroxypropan-2-yl)benzenesulfonimidamide]	> 30
Cc1cc(C(C)(C)O)ccc1S(N)(=O)=NC(=O)Nc1c(C(C)C)cc(OC(F)F)cc1C1CC1 (single isomer, unassigned) [Example 120, (R)- or (S)-N′-(2-cyclopropyl-4-(difluoromethoxy)-6-isopropylphenylcar-bamoyl)-4-(2-hydroxypropan-2-yl)-2-methylbenzenesulfonimidamidc]	> 30

same assay, conditions: hTHP-1 assay containing 2% fetal bovine serum; average; given as bound; read-out: hTHP-1 IC50 (Average IC50 of compounds in hTHP-1 assay)

IC50 [µM]	Compound
> 30	CCc1ccc2cn(C)nc2c1NC(=O)N=S(N)(=O)c1ncc(C(C)(C)O)s1 (single isomer, unassigned) [Example 330, (R) or (S)-N′-((6-ethyl-2-methyl-2H-indazol-7-yl)carbamoyl)-5-(2-hydroxypropan-2-yl)thiazole-2-sulfonimidamide]
